Results on 51 compounds are retold here after patent USRE46630E1, “Substituted 4-pyridones and their use as inhibitors of neutrophil elastase activity” (Boehringer Ingelheim International GmbH, priority 2012, dated 2017).

Structures are written as SMILES.

The target of the first assay is T1, Human neutrophil elastase (Homo sapiens, UniProt P08246).
T1 construct: purchased Calbiochem 324681
T1 sequence (P08246 30-267): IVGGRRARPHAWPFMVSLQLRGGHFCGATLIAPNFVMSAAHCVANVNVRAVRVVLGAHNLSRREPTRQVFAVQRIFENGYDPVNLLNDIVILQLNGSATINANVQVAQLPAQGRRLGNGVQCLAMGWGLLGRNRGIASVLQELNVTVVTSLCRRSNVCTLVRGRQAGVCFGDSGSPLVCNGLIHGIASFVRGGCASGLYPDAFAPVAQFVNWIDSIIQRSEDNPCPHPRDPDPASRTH
As to the kind of experiment: Human Neutrophil Elastase Assay. It counts as biochemical. The note with it: Neutrophil Elastase assay; substrate MeOSuc-Ala-Ala-Pro-Val-AMC 250 μM; 15 min preincubation, 60 min incubation at room temperature; pH 7.5. The method, then:
Human Neutrophil Elastase Assay
All other materials were of the highest grade commercially available.
The following buffers were used: Compound buffer: 100 mM Tris, 500 mM NaCl, adjusted to pH 7.5; Assay buffer: 100 mM Tris, 500 mM NaCl, adjusted to pH 7.5, containing 0.01% BSA.
Assay conditions: Test compounds were prediluted in DMSO and subsequently in compound buffer (5% DMSO final). […] After inactivation of the enzyme, fluorescence intensities were measured at 380 nm excitation and 460 nm emission wavelengths.
Each plate contains wells with a high value control (DMSO+enzyme+substrate) and wells with a low value control (DMSO+inactivated enzyme+substrate). […] Means of low values were taken as 0%, means of high values as 100%.
By IC50 is commonly meant the concentration needed to halve the response being measured. A low value points to inhibition by little substance. On to `Cc1c(-c2cccc(C(F)F)c2)c(=O)c(C(=O)NCc2cccnc2)cn1C(C)c1ccc(C#N)cc1` (stereo not shown) [Example 8.18], for which the IC50 was found to be 2.4 nM.

`Cc1c(-c2cccc(C(F)(F)F)c2)c(=O)c(C(=O)NCc2cccc(=O)[nH]2)cn1Cc1ccc(C#N)cc1` [Example 1.40] returned a concentration for half-maximal inhibition (IC50) of 2.1 nM. This IC50 and that of the compound before are within 1.5-fold of each other.

`Cc1c(-c2ccnc(C(F)(F)F)c2)c(=O)c(C(=O)NCc2ccc(S(C)(=O)=O)cc2)cn1Cc1ccc(C#N)c(F)c1` [Example 5.2] showed an IC50 of 1.2 nM. Against the preceding compound, the IC50 is about 1.8-fold lower.

`Cc1c(-c2cccc(C(F)(F)F)c2)c(=O)c(C(=O)NCC2CCN(C(=O)CN(C)C)CC2)cn1Cc1ccc(C#N)cc1` [Example 1.7] displayed an IC50 of 15.8 nM.

`Cc1nnc(CNC(=O)c2cn(C(C)c3ccc(C#N)cc3)c(C)c(-c3ccnc(C(F)(F)F)c3)c2=O)o1` (stereo not shown) [Example 9.7] showed a concentration for half-maximal inhibition (IC50) of 7 nM.

The compound `Cc1c(-c2cccc(C(F)(F)F)c2)c(=O)c(C(=O)NCC(C)O)cn1C(C)c1ccc(C#N)cc1` (stereo not shown) [Example 7.13] came in with an IC50 of 4 nM. Compared with the last compound, the IC50 is about 1.8-fold lower.

Compound `CCNC(=O)c1cn(C(C)c2ccc(C#N)cc2)c(C)c(-c2cccc(C(F)(F)F)c2)c1=O` (single isomer, unassigned) [Example 10B] had a half-inhibitory concentration (IC50) of 290 nM.

Regarding `CCOCCNC(=O)c1cn(C(C)c2ccc(C#N)cc2)c(C)c(-c2cccc(C(F)F)c2)c1=O` (stereo not shown) [Example 8.24], the IC50 amounted to 1.7 nM.

The compound `Cc1c(-c2cccc(C(F)(F)F)c2)c(=O)c(C(=O)N[C@@H]2CCNC2=O)cn1Cc1ccc(C#N)cc1` [Example 1.59] returned an IC50 of 10.5 nM.

In turn, `Cc1c(-c2cccc(C(F)(F)F)c2)c(=O)c(C(=O)NCCF)cn1C(C)c1ccc(C#N)cn1` (stereo not shown) [Example 47.6] had an IC50 of 12 nM.

Take `Cc1c(-c2cccc(C(F)(F)F)c2)c(=O)c(C(=O)NCc2ccc(S(C)(=O)=O)cc2)cn1Cc1ccc(C#N)cn1` [Example 2.3]: the IC50 was < 1 nM.

On to `Cc1c(-c2cccc(C(F)(F)F)c2)c(=O)c(C(=O)NCc2ccc(S(C)(=O)=O)cc2)cn1Cc1ccc(C#N)c(F)c1` [Example 2.9], for which the IC50 is < 1 nM.

In the case of `Cc1c(-c2cccc(C(F)(F)F)c2)c(=O)c(C(=O)NCc2ccc(S(C)(=O)=O)cc2)cn1Cc1ccc(C#N)cc1` [Example 2.12], the half-maximal inhibitory concentration (IC50) was < 1 nM.

As to `Cc1c(-c2cccc(C(F)F)c2)c(=O)c(C(=O)NCc2cnn(C)c2)cn1C(C)c1ccc(C#N)cc1` (stereo not shown) [Example 8.28], the IC50 worked out at 3.3 nM. That is a single-digit nanomolar value.

`Cc1c(-c2cccc(C(F)(F)F)c2)c(=O)c(C(=O)NC2CCC(=O)N(C)C2)cn1Cc1ccc(C#N)cc1` (stereo not shown) [Example 1.62]: the half-inhibitory concentration (IC50) turned out to be 10.4 nM. Against the preceding compound, the IC50 is about 3.2-fold higher.

As to `Cc1c(-c2ccnc(C(F)(F)F)c2)c(=O)c(C(=O)NCC2CC3CCC2O3)cn1C(C)c1ccc(C#N)cc1` (stereo not shown) [Example 9.30], it took 16.3 nM to reach half-maximal inhibition (IC50).

On to `CNC(=O)c1cn(Cc2ccc(C#N)cn2)c(C)c(-c2ccnc(C(F)(F)F)c2)c1=O` [Example 44, 1-(5-Cyano-pyridin-2-ylmethyl)-2-methyl-4-oxo-2′-trifluoromethyl-1,4-dihydro-[3,4′]bipyridinyl-5-carboxylic acid methylamide], for which the midpoint of inhibition, the IC50, lay at 94.6 nM.

Compound `Cc1c(-c2ccnc(C(F)(F)F)c2)c(=O)c(C(=O)NC2CCNC2=O)cn1C(C)c1ccc(C#N)cc1` (stereo not shown) [Example 9.4] registered a half-maximal inhibitory concentration (IC50) of 4.1 nM. Against the preceding compound, the IC50 is about 23-fold lower.

Turning to `Cc1c(-c2cccc(C(F)(F)F)c2)c(=O)c(C(=O)NCc2ccc(S(C)(=O)=O)cc2)cn1[C@H](C)c1ccc(C#N)cc1` [Example 2.5A], the IC50 is < 1 nM.

In turn, `Cc1c(-c2cccc(C(F)(F)F)c2)c(=O)c(C(=O)NCc2ccncc2)cn1Cc1ccc(C#N)cc1` [Example 1.50] showed an IC50 of 1.4 nM.

In turn, `Cc1c(-c2ccnc(C(F)(F)F)c2)c(=O)c(C(=O)NCCS(C)(=O)=O)cn1C(C)c1ccc(C#N)cc1` (stereo not shown) [Example 9.2] yielded an IC50 of 3.3 nM. Compared with the last compound, the IC50 is about 2.4-fold higher.

Compound `Cc1c(-c2cccc(C(F)(F)F)c2)c(=O)c(C(=O)NC(C)CO)cn1Cc1ccc(C#N)cc1` (stereo not shown) [Example 1.22] showed an IC50 of 44.6 nM.

Regarding `Cc1c(-c2ccnc(C(F)(F)F)c2)c(=O)c(C(=O)NCC(C)O)cn1C(C)c1ccc(C#N)cc1` (stereo not shown) [Example 9.61], half-maximal inhibition (IC50) was put at 8.6 nM.

In turn, `Cc1c(-c2ccnc(C(F)(F)F)c2)c(=O)c(C(=O)NCC2CCO2)cn1C(C)c1ccc(C#N)cc1` (stereo not shown) [Example 9.27] showed an IC50 of 13.7 nM.

Take `COCCNC(=O)c1cn(C(C)c2ccc(C#N)cn2)c(C)c(-c2cccc(C(F)(F)F)c2)c1=O` (stereo not shown) [Example 47.1]: the IC50 amounted to 12.9 nM.

For the compound `CNC(=O)c1cn(Cc2ccc(C#N)c(F)c2)c(C)c(-c2cccc(C(F)(F)F)c2)c1=O` [Example 3.5], the IC50 stood at 19.3 nM.

Consider `Cc1c(-c2cccc(C(F)(F)F)c2)c(=O)c(C(=O)NCc2ccc(S(C)(=O)=O)cc2)cn1C1(c2ccc(C#N)cc2)CC1` [Example 45, 1-[1-(4-Cyano-phenyl)-cyclopropyl]-6-methyl-4-oxo-5-(3-trifluoromethyl-phenyl)-1,4-dihydro-pyridine-3-carboxylic acid 4-methanesulfonyl-benzylamide], for which half-maximal inhibition (IC50) was put at 4.6 nM. Compared with the last compound, the IC50 is about 4.2-fold lower.

In the case of `Cc1c(-c2cccc(C(F)F)c2)c(=O)c(C(=O)NCc2ccnn2C)cn1C(C)c1ccc(C#N)cc1` (stereo not shown) [Example 8.16], it took 2.4 nM to reach half-maximal inhibition (IC50).

Consider `Cc1c(-c2ccnc(C(F)(F)F)c2)c(=O)c(C(=O)NCCN(C)C)cn1C(C)c1ccc(C#N)cc1` (stereo not shown) [Example 9.10], for which the IC50 came to 12.4 nM.

`Cc1c(-c2cccc(C(F)F)c2)c(=O)c(C(=O)NCc2ccc(S(C)(=O)=O)cc2)cn1C(C)c1ccc(C#N)cc1` (single isomer, unassigned) [Example 11B] had a half-maximal inhibitory concentration (IC50) of 19.5 nM. Against the preceding compound, the IC50 is about 1.6-fold higher.

As for `CNC(=O)c1cn(C(C)c2ccc(C#N)cc2)c(C)c(-c2cccc(CF)c2)c1=O` (stereo not shown) [Example 31, 1-[1-(4-Cyano-phenyl)-ethyl]-5-(3-fluoromethyl-phenyl)-6-methyl-4-oxo-1,4-dihydro-pyridine-3-carboxylic acid methylamide], 7.8 nM corresponded to half-maximal inhibition (IC50).

`Cc1c(-c2ccnc(C(F)(F)F)c2)c(=O)c(C(=O)NC2CCCC2O)cn1C(C)c1ccc(C#N)cc1` (stereo not shown) [Example 9.35] showed an IC50 of 26.2 nM.

In turn, `Cc1c(-c2ccnc(C(F)(F)F)c2)c(=O)c(C(=O)NCC[S+](C)[O-])cn1C(C)c1ccc(C#N)cc1` (stereo not shown) [Example 9.3] showed an IC50 of 3.9 nM.

With `CNC(=O)c1cn(Cc2ccc(C#N)cc2OC)c(C)c(-c2cccc(C(F)(F)F)c2)c1=O` [Example 3.7], half-maximal inhibition (IC50) required 26.4 nM.

For `Cc1c(-c2ccnc(C(F)(F)F)c2)c(=O)c(C(=O)NCc2ccc(S(C)(=O)=O)cc2)cn1Cc1ccc(C#N)cn1` [Example 5.1], the IC50 was determined as 2.8 nM.

Consider `Cc1c(-c2cccc(C(F)(F)F)c2)c(=O)c(C(=O)NC2CCN(C)C2=O)cn1Cc1ccc(C#N)cc1` (stereo not shown) [Example 1.57], for which the IC50 was found to be 6.8 nM.

The compound `Cc1c(-c2ccnc(C(F)(F)F)c2)c(=O)c(C(=O)NC2CC3CCC2O3)cn1C(C)c1ccc(C#N)cc1` (stereo not shown) [Example 9.39] returned a 50% inhibitory concentration (IC50) of 58.3 nM.

Turning to `Cc1c(-c2cccc(C(F)(F)F)c2)c(=O)c(C(=O)NCC2(O)CC2)cn1C(C)c1ccc(C#N)cc1` (stereo not shown) [Example 7.16], the IC50 stood at 17.9 nM. This IC50 is about 3.3-fold lower than that of the compound before.

In turn, `Cc1c(-c2cccc(C(F)(F)F)c2)c(=O)c(C(=O)NC2CNC(=O)C2)cn1Cc1ccc(C#N)cc1` (stereo not shown) [Example 1.12] registered a 50% inhibitory concentration (IC50) of 12.1 nM.

As to `Cc1c(-c2ccccc2)c(=O)c(C(=O)NCc2ccc(S(C)(=O)=O)cc2)cn1Cc1ccc(C#N)cc1` [Example 6.1, 1-(4-Cyano-benzyl)-6-methyl-4-oxo-5-phenyl-1,4-dihydro-pyridine-3-carboxylic acid 4-methanesulfonyl-benzylamide], it took 44.5 nM to reach half-maximal inhibition (IC50).

Consider `Cc1c(-c2cccc(C(F)(F)F)c2)c(=O)c(C(=O)NCC(=O)N(C)C)cn1Cc1ccc(C#N)cc1` [Example 1.65], for which it took 38.5 nM to reach half-maximal inhibition (IC50).

`CCNC(=O)c1cn(C(C)c2ccc(C#N)cc2)c(C)c(-c2cccc(C(F)F)c2)c1=O` (stereo not shown) [Example 8.21] gave an IC50 of 3 nM.

On to `Cc1c(-c2cccc(C(F)(F)F)c2)c(=O)c(C(=O)NCCN2CCOCC2)cn1Cc1ccc(C#N)cc1` [Example 1.49], for which the IC50 came to 10.4 nM.

The compound `CNC(=O)c1cn(C(C)c2ccc(C#N)cn2)c(C)c(-c2cccc(C(F)F)c2)c1=O` (single isomer, unassigned) [Example 16A] registered an IC50 of 4.2 nM.

Take `Cc1c(-c2ccnc(C(F)(F)F)c2)c(=O)c(C(=O)NCCCO)cn1C(C)c1ccc(C#N)cc1` (stereo not shown) [Example 9.1]: the IC50 was determined as 4.5 nM.

Regarding `Cc1c(-c2cccc(C(F)(F)F)c2)c(=O)c(C(=O)NCC(F)F)cn1C(C)c1ccc(C#N)cn1` (stereo not shown) [Example 47.19], the IC50 stood at 10.3 nM.

`Cc1noc(CNC(=O)c2cn(Cc3ccc(C#N)cc3)c(C)c(-c3cccc(C(F)(F)F)c3)c2=O)n1` [Example 1.67] displayed a 50% inhibitory concentration (IC50) of 6.5 nM.

`Cc1c(-c2cccc(C(F)(F)F)c2)c(=O)c(C(=O)NCc2ccc(S(C)(=O)=O)cn2)cn1Cc1cccc(C#N)c1` [Example 4.4] came in with an IC50 of 63.8 nM.

`Cc1c(-c2cccc(C(F)(F)F)c2)c(=O)c(C(=O)NCc2ccc(S(C)(=O)=O)cc2)cn1Cc1ccncc1` [Example 2.11] showed an IC50 of 38.9 nM.

In turn, `Cc1c(-c2cccc(C(F)(F)F)c2)c(=O)c(C(=O)NC2CCOC2)cn1C(C)c1ccc(C#N)cn1` (stereo not shown) [Example 47.9] came in with an IC50 of 67.2 nM.

Take `COC(=O)CNC(=O)c1cn(Cc2ccc(C#N)cc2)c(C)c(-c2cccc(C(F)(F)F)c2)c1=O` [Example 1.63]: it took 22.5 nM to reach half-maximal inhibition (IC50).

The same assay, now with this note: eutomer versus distomer of the racemic example.
Consider `Cc1c(-c2cccc(C(F)(F)F)c2)c(=O)c(C(=O)NCc2ccc(S(C)(=O)=O)cc2)cn1[C@H](C)c1ccc(C#N)cc1` [Example 2.5A], for which the “neutrophil elastase inhibitory potency, one enantiomer compared with the other” value is reported as “much more active”.
